Results taken from patent US20140314780A1, “Compositions Using Antibodies Directed to GPNMB and Uses Thereof” (Celldex Therapeutics, Inc., priority 2008, published 2014).

Experiments:
GPNMB = assay: Immunoblotting for GPNMB on whole-cell lysates of cancer cell lines after drug exposure; assay type: cell-based, human
Source text: Cancer cell lines were of human origin and were obtained from the American Type Culture Collection (Manassas, Va.) and from the National Cancer Institute (Bethesda, Md.) and cultured in RPMI-1640 supplemented with 10% FBS (growth media). Sources of reagents were as follows: RAFKi (553013), MEKi (U0126), MEKi (PD98059), MEKi (444939), ERKi (FR180204), p38 MAPKi (SB202190), p38 MAPKi (SB203580), aurora kinase inhibitor (189404), JNK inhibitor (420119), MMPi (GM6001) were from EMD Chemicals (San Diego, Calif.). ERKi (A6355), RAFKi: (GW5074), ammonium chloride (NH4Cl), chloroquine, monensin, cyclohexamide and emetine were from Sigma (Saint Louis, Mo.). HSP90i (geldanamycin) was from AG Scientific (San Diego, Calif.) and imatinib (Gleevec) was purchased from a pharmacy.
Cells were seeded in 6-well tissue culture dishes at a subconfluent density and allowed to attach overnight. For harvesting cell lysates, media was removed, cells were briefly washed with serum-free media and then 1× Tris-glycine SDS sample buffer (Invitrogen, Carlsbad, Calif.) supplemented with 10 mM dithiothreitol (Sigma) was added directly to the wells. Cell lysates were then collected and boiled for 10 minutes. For preparing conditioned media, drug treatments were performed in a minimum volume of growth media (1.5 mL/well). Following 48 hours of incubation, conditioned media was collected, briefly microfuged, mixed with an equal volume of 2× Tris-glycine SDS sample buffer (Invitrogen, Carlsbad, Calif.) supplemented with 20 mM dithiothreitol (Sigma) and boiled for 10 minutes. For cell lysates, samples were quantified and an equal quantity of protein/lane was resolved on 4-20% gradient polyacrylamide gels (Invitrogen) and then transferred to nitrocellulose filters (Invitrogen). The volume of conditioned media loaded/lane was adjusted based on the protein concentration determined in the respective cell lysates. Immunoblotting was performed using standard procedures and the following primary antibodies: MARTI (sc-20032), TYRP2 (sc-25544), TYRP1 (sc-25543), PMEL17 (sc-15010), MAGEA1 (sc-20033), MCSP (sc-20162), MTf (sc-26651), MCAM (sc-18942), pp-ERK (sc-7976) and ERK (sc-94) (preceding antibodies were purchased from Santa Cruz Biotechnologies, Santa Cruz, Calif.), GPNMB (AF2550; R & D Systems, Minneapolis Minn.), actin (A5060; Sigma). Following incubation with the appropriate horseradish peroxidase-conjugated secondary antibodies, enhanced chemiluminescence (GE Healthcare, Chalfont St. Giles, United Kingdom) was used for detection.

phospho-ERK (pp-ERK) = assay: Immunoblotting for phospho-ERK (level of ERK activation); assay type: cell-based, human
Source text: In the experiment presented in FIG. 2A, potential inhibition of the ERK pathway was investigated by immunoblotting for phospho-ERK (pp-ERK), which represents the active form of this signaling molecule.

[1] = tested on: GPNMB surface expression on SF539 glioblastoma cells; assay: Flow cytometry of GPNMB surface expression, SF539 cells; assay type: cell-based, human; details: SF549, CR011 (anti-GPNMB) primary antibody
Description: (§1) Cells were seeded in 6-well tissue culture dishes at a subconfluent density and allowed to attach overnight. The following day, cells were treated as indicated in the figures/legends, harvested with versene (Invitrogen), washed with PBS and incubated with primary antibody (10 μg/mL) diluted in staining buffer (PBS pH 7.4, 4% FBS, 0.1% sodium azide) for 30 minutes on ice. […] After incubation with primary antibody, samples were washed with staining buffer and then incubated with secondary antibody (PE-conjugated anti-human antibody; 1:100) for 30 minutes on ice. After incubation, samples were washed with staining buffer and examined on a Becton Dickinson FACSCalibur flow cytometer (BD Immunocytometry Systems, San Jose, Calif.). Data analysis was performed with Becton Dickinson Cell Quest software and the geometric mean fluorescence intensity (GeoMean) was determined for each sample.
For the data shown in Table 37, flow cytometry was performed on intact, non-permeabilized cells using the indicated primary monoclonal antibodies. […] The results are reported as GeoMeans. […] For the data shown in the bottom left panel of Table 37, SKMEL2 (melanoma) cells were treated with MEKi (U0126; 10 uM), imatinib (20 uM), p38i (p38 MAPKi SB202190; 50 uM), NH4Cl (ammonium chloride; 20 mM) or CLQ (chloroquine; 20 uM) for 48 hours prior to analysis. For the data shown in the bottom right panel of Table 37, WM2664 (melanoma) cells were treated with MON (monensin) or MMPi (GM6001) for 48 hours prior to analysis.

[2] = tested on: GPNMB surface expression on SKMEL2 melanoma cells; assay: Flow cytometry of GPNMB surface expression, SKMEL2 cells; assay type: cell-based, human; details: SKMEL2; CR011 (anti-GPNMB) primary antibody; MEKi (U0126) 10 uM, imatinib 20 uM, p38i (SB202190) 50 uM
Description: as §1
For the data shown in Table 37, flow cytometry was performed on intact, non-permeabilized cells using the indicated primary monoclonal antibodies. […] The results are reported as GeoMeans. For the data shown in the top panel of Table 37, A375 (melanoma) or SF539 (glioblastoma) cells were treated with the indicated concentrations of MEKi (U0126), RAFKi (553013) or ERKi (FR180204) for 12, 24 or 48 hours prior to analysis. For the data shown in the bottom left panel of Table 37, SKMEL2 (melanoma) cells were treated with MEKi (U0126; 10 uM), imatinib (20 uM), p38i (p38 MAPKi SB202190; 50 uM), NH4Cl (ammonium chloride; 20 mM) or CLQ (chloroquine; 20 uM) for 48 hours prior to analysis. For the data shown in the bottom right panel of Table 37, WM2664 (melanoma) cells were treated with MON (monensin) or MMPi (GM6001) for 48 hours prior to analysis.

UACC62 melanoma cells = assay: In vitro growth-inhibition/cytotoxicity assay, UACC62 cells; assay type: cell-based, human; details: UACC62 cells
SKMEL2 cells = SKMEL2 cells (FIG. 4C)
Description: Cells were seeded in tissue culture dishes at a subconfluent density and allowed to attach overnight. The following day, cells were treated with or without U0126 (1 μM) diluted in growth media and incubated for 48 hours. […] After incubation, photomicrographs were taken and adherent cells were trypsinized, mixed with trypan blue dye and counted on a haemocytometer. Only viable cells which excluded trypan blue were counted. For SKMEL2, cells were seeded in 96-well plates after U0126 treatment and assayed after 72 h using the CellTiter-Glo assay according to the manufacturer's instructions (Promega, Madison, Wis.).

SMILES: N#CC(=C(/N)Sc1ccccc1N)/C(C#N)=C(\N)Sc1ccccc1N [Mab U0126]
- GPNMB induction (immunoblotting), kinetics and drug concentration (GPNMB): increased with exposure time
- GPNMB induction compared to other melanoma-associated proteins (GPNMB): most consistently induced
- inhibition of the ERK pathway (phospho-ERK levels) (phospho-ERK (pp-ERK); A375 and SKMEL2 cell lines (FIG. 3B)): robust and sustained inhibition
- inhibition of the ERK pathway (phospho-ERK levels) (phospho-ERK (pp-ERK); SF539 cells (FIG. 3B)): transient inhibition
- GPNMB surface expression, flow cytometry GeoMean ([1]; MEKi (U0126) 5 um, 12 h): 41.5
- GPNMB surface expression, flow cytometry GeoMean ([1]; MEKi (U0126) 5 um, 24 h): 36.3
- GPNMB surface expression, flow cytometry GeoMean ([1]; MEKi (U0126) 5 um, 48 h): 41.5
- GPNMB surface expression, flow cytometry GeoMean ([1]; MEKi (U0126) 20 um, 12 h): 46.3
- GPNMB surface expression, flow cytometry GeoMean ([1]; MEKi (U0126) 20 um, 24 h): 39.2
- GPNMB surface expression, flow cytometry GeoMean [2]: 174.5
- sensitization to CR011-vcMMAE by pretreatment, CellTiter-Glo assay (ATP) (UACC62 melanoma cells): confirmed
- sensitization to growth-inhibitory activity of CR011-vcMMAE by pretreatment (UACC62 melanoma cells): sensitized
- sensitization to CR011-vcMMAE by pretreatment (SKMEL2 cells): sensitized
